Measured values as given in patent US10682388B2, “Targeting of PELP1 in cancer therapy” (THE BOARD OF REGENTS OF THE UNIVERSITY OF TEXAS SYSTEM, priority 2014, dated 2020).

System: T98G, LN229 and U251 glioma cells and patient-derived primary GBM cells
Assay: MTT proliferation assay, glioma cell lines and primary GBM cells
Format: cell-based
Details: FIGS. 15A-D
Description: FIGS. 15A-D. PIPs inhibit proliferation of glioma cells. (FIGS. 15A-B) T98G, LN229 and U251 glioma cells were treated with vehicle or varying concentration of PIP1 or PIP3, and proliferation was measured by using the MTT assay. (FIGS. 15C-D) Patient-derived primary GBM cells were treated with PIP1 or PIP3 and proliferation was measured using the MTT assay. Cell proliferation rates were measured by using MTT Cell Viability Assay in 96-well plates. Model cells were seeded in 96-well plates (1×10^3 cells/well) in DMEM or RPMI medium containing 10% serum. After an overnight incubation, cells were treated with varying concentrations of the peptides for 3-7 days and growth inhibition was determined by using traditional MTT assay (Sigma) following manufacturer's instructions.

Sequence: GRKKRRQRRRGGMVEFRWSCPGRRKAKA [PIP1]
- concentration of potent activity on glioma proliferation: 50 µM
- proliferation of glioma cell lines and primary GBM cells (varying concentration): significantly reduced their proliferation in a dose-dependent manner
